This is an account of results in patent publication US20110313156A1 (BOEHRINGER INGELHEIM INTERNATIONAL GMBH, priority 2008, published 2011).

In one test the target is T1, His6-PDK1 (aa 52-556) (Homo sapiens, UniProt O15530).
T1 construct: 15 μL His6-PDK1 (aa 52-556) 3.33 ng/well); host or cells: baculovirus-infected insect cells
T1 sequence (O15530 52-556): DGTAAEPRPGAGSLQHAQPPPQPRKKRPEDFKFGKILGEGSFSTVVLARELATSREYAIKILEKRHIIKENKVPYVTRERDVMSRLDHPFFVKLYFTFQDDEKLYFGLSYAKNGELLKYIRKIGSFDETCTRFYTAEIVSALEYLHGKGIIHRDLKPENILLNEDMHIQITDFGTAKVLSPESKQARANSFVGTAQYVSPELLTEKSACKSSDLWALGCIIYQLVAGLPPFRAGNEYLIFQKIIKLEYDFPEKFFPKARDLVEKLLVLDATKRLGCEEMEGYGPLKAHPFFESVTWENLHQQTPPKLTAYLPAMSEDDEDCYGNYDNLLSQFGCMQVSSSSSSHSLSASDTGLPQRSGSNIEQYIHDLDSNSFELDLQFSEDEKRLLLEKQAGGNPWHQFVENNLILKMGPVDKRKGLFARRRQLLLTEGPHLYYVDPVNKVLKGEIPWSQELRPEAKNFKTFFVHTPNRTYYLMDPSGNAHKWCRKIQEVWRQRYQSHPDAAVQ
Briefly: PDK1 kinase assay III (with Tween 20). The following applies: compound at 10 μM; PDK1 kinase assay III (values without asterisk); read-out: % CTL (residual activity of the enzyme relative to DMSO control). It counts as biochemical. In short, it runs like this: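 Started with ATP, incubated 90 min at ambient temperature, then stopped with phosphoric acid. Asterisked values come from assay II (24 h or 5 min incubation).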
For `Cc1c(C(=O)NC/C=C/c2ccc3nc(Nc4ccc(CN(C)C)cc4)ncc3c2)c(=O)n(Cc2cc(F)c(F)c(F)c2)n1C` [IV-20, N-{(2E)-3-[2-({4-[(dimethylamino)methyl]phenyl}amino)quinazolin-6-yl]prop-2-en-1-yl}-1,5-dimethyl-3-oxo-2-(3,4,5-trifluorobenzyl)-2,3-dihydro-1H-pyrazole-4-carboxamide], the remaining activity at 10 µM is 14.3%. As for `O=C(NC/C=C/c1ccc2nc(Nc3ccncc3)ncc2c1)c1cncn(Cc2ccc(F)c(F)c2)c1=O`, the remaining activity at 10 µM was found to be 12.1%.

In the case of `COCCN(C)C(=O)c1ccc(Nc2ncc3cc(C#CCNC(=O)c4c(C)n(C)n(Cc5ccc(F)c(F)c5)c4=O)ccc3n2)cc1`, the remaining activity at 10 µM amounted to 17.2%. On to `CN(C)Cc1ccc(Nc2ncc3cc(/C=C/CNC(=O)c4cncn(Cc5ccc(F)c(F)c5)c4=O)ccc3n2)cc1` [IV-3, 1-(3,4-difluorobenzyl)-N-{(2E)-3-[2-({4-[(dimethylamino)methyl]phenyl}amino)-quinazolin-6-yl]prop-2-en-1-yl}-6-oxo-1,6-dihydropyrimidine-5-carboxamide], for which the remaining activity at 10 µM came out at 11.1%.

For `O=C1Nc2cc(/C=C/CNC(=O)c3cncn(Cc4ccc(F)c(F)c4)c3=O)ccc2/C1=C/c1ncc[nH]1` [I-37, 1-(3,4-difluorobenzyl)-N-{(2E)-3-[(3Z)-3-(1H-imidazol-2-ylmethylidene)-2-oxo-2,3-dihydro-1H-indol-6-yl]prop-2-en-1-yl}-6-oxo-1,6-dihydropyrimidine-5-carboxamide], the remaining activity at 10 µM turned out to be 16.6%.

On to `CN1CCC(Nc2ccc(Nc3ncc4cc(/C=C/CNC(=O)c5nccn(Cc6ccc(F)c(F)c6)c5=O)ccc4n3)cc2F)CC1` [IV-50, 4-(3,4-difluorobenzyl)-N-{(2E)-3-[2-({3-fluoro-4-[(1-methylpiperidin-4-yl)amino]-phenyl}amino)quinazolin-6-yl]prop-2-en-1-yl}-3-oxo-3,4-dihydropyrazine-2-carboxamide], for which the remaining activity at 10 µM is 11.6%. Take `Cc1c(C(=O)NCc2ccc(Nc3ncnc4[nH]c(-c5ccccc5)cc34)cc2)c(=O)n(Cc2ccc(F)c(F)c2)n1C` [IV-25, 2-(3,4-difluorobenzyl)-1,5-dimethyl-3-oxo-N-{4-[(6-phenyl-7H-pyrrolo[2,3-d]-pyrimidin-4-yl)amino]benzyl}-2,3-dihydro-1H-pyrazole-4-carboxamide]: the remaining activity at 10 µM came to 33.5%. As for `COCCCN(C)C(=O)c1ccc(Nc2ncc3cc(C#CCNC(=O)c4cncn(Cc5ccc(F)c(F)c5)c4=O)ccc3n2)cc1` [III-104], the remaining activity at 10 µM worked out at 15.8%. Take `CN(C)Cc1ccc(Nc2ncc3cc(C#CCNC(=O)c4ccnn(Cc5ccc(F)c(F)c5)c4=O)ccc3n2)cc1`: the remaining activity at 10 µM is 13.3%. Turning to `Cc1c(C(=O)NC/C=C/c2ccc3nc(Nc4ccc(CN(C)C)cc4)ncc3c2F)c(=O)n(Cc2ccc(F)c(F)c2)n1C` [IV-34, 2-(3,4-difluorobenzyl)-N-{(2E)-3-[2-({4-[(dimethylamino)methyl]phenyl}amino)-5-fluoroquinazolin-6-yl]prop-2-en-1-yl}-1,5-dimethyl-3-oxo-2,3-dihydro-1H-pyrazole-4-carboxamide], the remaining activity at 10 µM was 14.4%.

Regarding `Cc1c(C(=O)NCC#Cc2ccc3nc(Nc4ccc(CN(C)C)cc4)ncc3c2)c(=O)n(Cc2ccc(F)c(F)c2)n1C` [III-20, 2-(3,4-difluorobenzyl)-N-{3-[2-({4-[(dimethylamino)methyl]phenyl}amino)-quinazolin-6-yl]prop-2-yn-1-yl}-1,5-dimethyl-3-oxo-2,3-dihydro-1H-pyrazole-4-carboxamide], the remaining activity at 10 µM came out at 13.7%. Take `Cc1cccc(Nc2ncc3cc(C#CCNC(=O)c4c(C)n(C)n(Cc5ccc(F)c(F)c5)c4=O)ccc3n2)c1` [III-79]: the remaining activity at 10 µM was determined as 20%. Consider `Cc1c(C(=O)NC/C=C/c2ccc3nc(Nc4ccc(C(=O)N(C)C5CCN(C)CC5)c(F)c4)ncc3c2)c(=O)n(Cc2ccc(F)c(F)c2)n1C`, for which the remaining activity at 10 µM turned out to be 13.7%.

The same test, now with this note: read-out: % CTL (residual activity of the enzyme relative to DMSO control).
With `Cc1c(C(=O)NC/C=C/c2ccc3nc(NC(C)C)ncc3c2)c(=O)n(Cc2ccc(F)c(F)c2)n1C` [IV-92], the remaining activity at 10 µM turned out to be 21.6%.
